Laboratory results from patent US9029391B2 (priority 2011, dated 2015).

The compounds below were run on HIV (assay: MT4 Assay (anti-HIV activity)). Settings: Human immunodeficiency virus 1, 96 h, read-out: HIV MT4 Assay IC50, HTLV-1 transformed cell line MT-4, cell titer glo, 10 point dose response curve.
Type: cell-based
In short: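 IC50 values were fitted to 10-point dose-response series (3-4-fold dilutions, range >1000-fold), normalized to no-compound control. CellTiter-Glo read-out was taken after 96 hours in HTLV-1-transformed MT-4 cells. Cytotoxicity was measured in parallel under identical conditions.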

SMILES	IC50
Cc1c(-c2c(C(OC(C)(C)C)C(=O)O)n(C)c(=O)c3cc(F)ccc23)cc(F)c2c1CCCO2 (centres unmarked) [Example 92, 2-(tert-butoxy)-2-[7-fluoro-4-(8-fluoro-5-methyl-3,4-dihydro-2H-1-benzopyran-6-yl)-2-methyl-1-oxo-1,2-dihydroisoquinolin-3-yl]acetic acid]	140 nM
Cc1c(-c2c(C(OC(C)(C)C)C(=O)O)n(C)c(=O)c3cc(OCc4ccc(F)cc4)ccc23)ccc2c1CCCO2 (centres unmarked) [Example 93, 2-(tert-butoxy)-2-{7-[(4-fluorophenyl)methoxy]-2-methyl-4-(5-methyl-3,4-dihydro-2H-1-benzopyran-6-yl)-1-oxo-1,2-dihydroisoquinolin-3-yl}acetic acid]	80 nM
COc1ccc2c(-c3ccc4c(c3C)CCCO4)c([C@H](OC(C)(C)C)C(=O)O)n(C)c(=O)c2c1 [Example 94, (2S)-2-(tert-butoxy)-2-[7-methoxy-2-methyl-4-(5-methyl-3,4-dihydro-2H-1-benzopyran-6-yl)-1-oxo-1,2-dihydroisoquinolin-3-yl]acetic acid]	20 nM
Cc1c(-c2c(C(OC(C)(C)C)C(=O)O)n(C)c(=O)c3cc(OCc4cc(F)ccc4F)ccc23)ccc2c1CCCO2 (centres unmarked) [Example 95, 2-(tert-butoxy)-2-{7-[(2,5-difluorophenyl)methoxy]-2-methyl-4-(5-methyl-3,4-dihydro-2H-1-benzopyran-6-yl)-1-oxo-1,2-dihydroisoquinolin-3-yl}acetic acid]	90 nM
Cc1c(-c2c(C(OC(C)(C)C)C(=O)O)n(C)c(=O)c3cc(OCc4cccc(F)c4F)ccc23)ccc2c1CCCO2 (centres unmarked) [Example 96, 2-(tert-butoxy)-2-{7-[(2,3-difluorophenyl)methoxy]-2-methyl-4-(5-methyl-3,4-dihydro-2H-1-benzopyran-6-yl)-1-oxo-1,2-dihydroisoquinolin-3-yl}acetic acid]	70 nM
Cc1c(-c2c(C(OC(C)(C)C)C(=O)O)n(C)c(=O)c3cc(OCc4cccnc4)ccc23)ccc2c1CCCO2 (centres unmarked) [Example 97, 2-(tert-butoxy)-2-[2-methyl-4-(5-methyl-3,4-dihydro-2H-1-benzopyran-6-yl)-1-oxo-7-(pyridin-3-ylmethoxy)-1,2-dihydroisoquinolin-3-yl]acetic acid]	370 nM
Cc1c(-c2c(C(OC(C)(C)C)C(=O)O)n(C)c(=O)c3cc(OCc4c(F)cccc4F)ccc23)ccc2c1CCCO2 (centres unmarked) [Example 98, 2-(tert-butoxy)-2-{7-[(2,6-difluorophenyl)methoxy]-2-methyl-4-(5-methyl-3,4-dihydro-2H-1-benzopyran-6-yl)-1-oxo-1,2-dihydroisoquinolin-3-yl}acetic acid]	90 nM
Cc1c(-c2c(C(OC(C)(C)C)C(=O)O)n(C)c(=O)c3cc(OCc4c(F)cc(F)cc4F)ccc23)ccc2c1CCCO2 (centres unmarked) [Example 99, 2-(tert-butoxy)-2-[2-methyl-4-(5-methyl-3,4-dihydro-2H-1-benzopyran-6-yl)-1-oxo-7-[(2,4,6-trifluorophenyl)methoxy]-1,2-dihydroisoquinolin-3-yl]acetic acid]	130 nM
Cc1c(-c2c(C(OC(C)(C)C)C(=O)O)n(C)c(=O)c3cc(OCc4ccc(F)cn4)ccc23)ccc2c1CCCO2 (centres unmarked) [Example 100, 2-(tert-butoxy)-2-{7-[(5-fluoropyridin-2-yl)methoxy]-2-methyl-4-(5-methyl-3,4-dihydro-2H-1-benzopyran-6-yl)-1-oxo-1,2-dihydroisoquinolin-3-yl}acetic acid]	270 nM
Cc1c(-c2c(C(OC(C)(C)C)C(=O)O)n(C)c(=O)c3cc(OCc4ccc(F)cn4)ccc23)cc(F)c2c1CCCO2 (centres unmarked) [Example 101, 2-(tert-butoxy)-2-[4-(8-fluoro-5-methyl-3,4-dihydro-2H-1-benzopyran-6-yl)-7-[(5-fluoropyridin-2-yl)methoxy]-2-methyl-1-oxo-1,2-dihydroisoquinolin-3-yl]acetic acid]	290 nM
Cc1cccnc1COc1ccc2c(-c3ccc4c(c3C)CCCO4)c(C(OC(C)(C)C)C(=O)O)n(C)c(=O)c2c1 (centres unmarked) [Example 102, 2-(tert-butoxy)-2-[2-methyl-4-(5-methyl-3,4-dihydro-2H-1-benzopyran-6-yl)-7-[(3-methylpyridin-2-yl)methoxy]-1-oxo-1,2-dihydroisoquinolin-3-yl]acetic acid]	330 nM
Cc1c(-c2c(C(OC(C)(C)C)C(=O)O)n(C)c(=O)c3cc(OCc4ccccc4F)ccc23)ccc2c1CCCO2 (centres unmarked) [Example 103, 2-(tert-butoxy)-2-{7-[(2-fluorophenyl)methoxy]-2-methyl-4-(5-methyl-3,4-dihydro-2H-1-benzopyran-6-yl)-1-oxo-1,2-dihydroisoquinolin-3-yl}acetic acid]	50 nM
Cc1c(-c2c(C(OC(C)(C)C)C(=O)O)n(C)c(=O)c3cc(OCc4cccc(F)c4)ccc23)ccc2c1CCCO2 (centres unmarked) [Example 104, 2-(tert-butoxy)-2-{7-[(3-fluorophenyl)methoxy]-2-methyl-4-(5-methyl-3,4-dihydro-2H-1-benzopyran-6-yl)-1-oxo-1,2-dihydroisoquinolin-3-yl}acetic acid]	60 nM
Cc1nc(COc2ccc3c(-c4cc(F)c5c(c4C)CCCO5)c([C@H](OC(C)(C)C)C(=O)O)n(C)c(=O)c3c2)c(C)o1 [Example 105, (2S)-2-(tert-butoxy)-2-{7-[(dimethyl-1,3-oxazol-4-yl)methoxy]-4-(8-fluoro-5-methyl-3,4-dihydro-2H-1-benzopyran-6-yl)-2-methyl-1-oxo-1,2-dihydroisoquinolin-3-yl}acetic acid]	100 nM
COc1ccc2c(-c3cc(F)c4c(c3C)CCCO4)c([C@H](OC(C)(C)C)C(=O)O)n(C)c(=O)c2c1 [Example 106, (2S)-2-(tert-butoxy)-2-[4-(8-fluoro-5-methyl-3,4-dihydro-2H-1-benzopyran-6-yl)-7-methoxy-2-methyl-1-oxo-1,2-dihydroisoquinolin-3-yl]acetic acid]	40 nM
Cc1c(-c2c([C@H](OC(C)(C)C)C(=O)O)n(C)c(=O)c3cc(OCc4ccc(F)cc4F)ccc23)cc(F)c2c1CCCO2 [Example 107, (2S)-2-(tert-butoxy)-2-{7-[(2,4-difluorophenyl)methoxy]-4-(8-fluoro-5-methyl-3,4-dihydro-2H-1-benzopyran-6-yl)-2-methyl-1-oxo-1,2-dihydroisoquinolin-3-yl}acetic acid]	20 nM
Cc1c(-c2c([C@H](OC(C)(C)C)C(=O)O)n(C)c(=O)c3cc(OCc4ccc(F)c(F)c4)ccc23)ccc2c1CCCO2 [Example 108, (2S)-2-(tert-butoxy)-2-{7-[(3,4-difluorophenyl)methoxy]-2-methyl-4-(5-methyl-3,4-dihydro-2H-1-benzopyran-6-yl)-1-oxo-1,2-dihydroisoquinolin-3-yl}acetic acid]	30 nM
Cc1c(-c2c([C@H](OC(C)(C)C)C(=O)O)n(C)c(=O)c3cc(OCc4cccs4)ccc23)cc(F)c2c1CCCO2 [Example 109, (2S)-2-(tert-butoxy)-2-[4-(8-fluoro-5-methyl-3,4-dihydro-2H-1-benzopyran-6-yl)-2-methyl-1-oxo-7-(thiophen-2-ylmethoxy)-1,2-dihydroisoquinolin-3-yl]acetic acid]	20 nM
Cc1c(-c2c([C@H](OC(C)(C)C)C(=O)O)n(C)c(=O)c3cc(OCc4ccc(Cl)s4)ccc23)cc(F)c2c1CCCO2 [Example 110, (2S)-2-(tert-butoxy)-2-{7-[(5-chlorothiophen-2-yl)methoxy]-4-(8-fluoro-5-methyl-3,4-dihydro-2H-1-benzopyran-6-yl)-2-methyl-1-oxo-1,2-dihydroisoquinolin-3-yl}acetic acid]	40 nM
Cc1c(-c2c([C@H](OC(C)(C)C)C(=O)O)n(C)c(=O)c3cc(OCc4cccs4)ccc23)ccc2c1CCCO2 [Example 111, (2S)-2-(tert-butoxy)-2-[2-methyl-4-(5-methyl-3,4-dihydro-2H-1-benzopyran-6-yl)-1-oxo-7-(thiophen-2-ylmethoxy)-1,2-dihydroisoquinolin-3-yl]acetic acid]	30 nM
Cc1c(-c2c([C@H](OC(C)(C)C)C(=O)O)n(C)c(=O)c3cc(OCc4ccc(Cl)s4)ccc23)ccc2c1CCCO2 [Example 112, (2S)-2-(tert-butoxy)-2-{7-[(5-chlorothiophen-2-yl)methoxy]-2-methyl-4-(5-methyl-3,4-dihydro-2H-1-benzopyran-6-yl)-1-oxo-1,2-dihydroisoquinolin-3-yl}acetic acid]	50 nM
Cc1ccc(COc2ccc3c(-c4cc(F)c5c(c4C)CCCO5)c([C@H](OC(C)(C)C)C(=O)O)n(C)c(=O)c3c2)s1 [Example 113, (2S)-2-(tert-butoxy)-2-[4-(8-fluoro-5-methyl-3,4-dihydro-2H-1-benzopyran-6-yl)-2-methyl-7-[(5-methylthiophen-2-yl)methoxy]-1-oxo-1,2-dihydroisoquinolin-3-yl]acetic acid]	30 nM
Cc1c(-c2c(C(OC(C)(C)C)C(=O)O)n(C)c(=O)c3cc(OC(F)F)ccc23)ccc2c1CCCO2 (centres unmarked) [Example 114, 2-(tert-butoxy)-2-[7-(difluoromethoxy)-2-methyl-4-(5-methyl-3,4-dihydro-2H-1-benzopyran-6-yl)-1-oxo-1,2-dihydroisoquinolin-3-yl]acetic acid]	420 nM
Cc1ccc2c(-c3ccc4c(c3C)CCCO4)c([C@H](OC(C)(C)C)C(=O)O)n(C)c(=O)c2c1 [Example 115, (2S)-2-(tert-butoxy)-2-[2,7-dimethyl-4-(5-methyl-3,4-dihydro-2H-1-benzopyran-6-yl)-1-oxo-1,2-dihydroisoquinolin-3-yl]acetic acid]	20 nM
CC(=O)N1CCOc2ccc(-c3c(C(OC(C)(C)C)C(=O)O)n(C)c(=O)c4ccccc34)c(Cl)c21 (centres unmarked) [Example 116, 2-[4-(4-acetyl-5-chloro-3,4-dihydro-2H-1,4-benzoxazin-6-yl)-2-methyl-1-oxo-1,2-dihydroisoquinolin-3-yl]-2-(tert-butoxy)acetic acid]	33200 nM
Cc1c(-c2c(C(OC(C)(C)C)C(=O)O)n(C)c(=O)c3cc(OCCN4CCCC4)ccc23)ccc2c1CCCO2 (centres unmarked) [Example 117, 2-(tert-butoxy)-2-[2-methyl-4-(5-methyl-3,4-dihydro-2H-1-benzopyran-6-yl)-1-oxo-7-[2-(pyrrolidin-1-yl)ethoxy]-1,2-dihydroisoquinolin-3-yl]acetic acid]	4090 nM
